Like-named read-outs stand apart in the source and are kept apart here.
Legend:
[1] = system: standard and high-risk ALL; settings: for Coefficient of variation of toxicity of aminopterin as percent of that of methotrexate: both oral; for Therapeutic Component: Percentage effective (no evidence of a disease manifestation): greater than 12 months treatment, AMT 4 mg/m^2/wk high risk ALL (n=20), MTX 100 mg/m^2/wk standard risk ALL (n=20)
[2] = Interpatient oral bioavailability in patients (oral vs intravenous AUC, matched); format: in vivo; settings: human, plasma
Description: The term “interpatient oral bioavailability” as used herein refers to the mean oral bioavailability in a population of at least two patients, wherein the oral bioavailability is determined at least once for each patient in the population. The interpatient oral bioavailability may be calculated by dividing the mean population AUC after oral dosing by the mean population AUC after intravenous dosing, wherein the oral and intravenous doses are identical, and expressing the ratio as a percent. In a preferred method, the interpatient oral bioavailability is calculated using matched samples by averaging the oral bioavailabilities obtained for each patient. More specifically, the oral bioavailability is obtained for each patient by dividing the AUC after oral dosing the patient by the AUC after intravenous dosing the same patient with the same dose of antifolate (i.e. the oral and intravenous AUC in each patient are matched and the patients are said to be matched). The interpatient oral bioavailability based on these matched patients is then simply the mean population oral bioavailability expressed as a percent. […] It is sufficient to use a representative number of patients from a particular patient population to establish an interpatient oral bioavailability for that population, where at least 5 patients will be required in order to establish an interpatient oral bioavailability of a population.
The term “oral bioavailability” as used herein refers to the fraction of an antifolate dose given orally that is absorbed into the plasma after a single administration to a patient. A preferred method for determining the oral bioavailability is by dividing the AUC of an antifolate dose given orally by the AUC of the same antifolate dose given intravenously to the same patient, and expressing the ratio as a percent. […]

[3] = target: T1, partially purified chicken liver DHFR (Gallus gallus, UniProt P00378); assay: Radioligand DHFR binding assay; settings: aminopterin compared with methotrexate
T1 sequence (P00378 1-189): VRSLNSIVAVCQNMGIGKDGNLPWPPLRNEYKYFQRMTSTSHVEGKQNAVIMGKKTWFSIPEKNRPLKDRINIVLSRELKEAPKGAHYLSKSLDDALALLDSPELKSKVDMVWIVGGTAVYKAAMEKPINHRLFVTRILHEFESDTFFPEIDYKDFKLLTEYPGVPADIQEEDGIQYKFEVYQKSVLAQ

[4] = Interpatient coefficient of variation of oral bioavailability; format: in vivo; settings: human, plasma, 2 mg/m2; AMT 2 mg/m^2 PO, pediatric and adult patients, n=27
Description: The term “interpatient coefficient of variation of oral bioavailability” as used herein refers to the coefficient of variation of oral bioavailability in a population of at least two patients, wherein the oral bioavailability is determined at least once for each patient in the population. Specifically, it is the standard deviation of oral bioavailability in the population divided by the interpatient oral bioavailability, expressed as a percent. […] It is sufficient to use a representative number of patients from a particular patient population to establish the interpatient coefficient of variation of oral bioavailability for that population, where at least 5 patients will be required in order to establish the interpatient coefficient of variation of oral bioavailability of a population.
The standard deviation of oral bioavailability and interpatient oral bioavailability were determined among 27 matched patients.
Pharmacol. 10(1):36, 1982].

[5] = mice, 4 weekly ip doses (aminopterin 0.03 mg/kg, methotrexate 0.3 mg/kg)
[6] = system: T-lineage acute lymphoblastic leukemia (ALL); settings: for Therapeutic Index / Toxicity Component: Antifolate dose with same toxicity as MTX at 100 mg/m^2/wk: T-lineage ALL; for Therapeutic Component: Antifolate dose / Therapeutic Component: Percentage effective (complete remission or stable disease): peripheral blasts and bone marrow infiltrates in T-lineage ALL, n=7; for Therapeutic Component: Percentage effective (complete remission or stable disease): AMT 4 mg/m^2/wk, MTX >5000 mg/m^2/wk in the same patients
Description: Specifically, a clinical trial was performed in human adult and pediatric patients having T-lineage acute lymphoblastic leukemia (ALL) that was refractory to therapy or that had relapsed (see Table IV). The disease manifestations that were monitored were peripheral blasts and bone marrow infiltrates. The toxicity manifestations that were monitored were mucositis, neutropenia, thrombocytopenia and myelosuppression.

[7] = Storage of aqueous compositions; format: physicochemical; settings: parenteral, oral liquid or other aqueous compositions
Excerpt: Because of their ease of administration, tablets and capsules represent the most advantageous oral dosage form in adults, in which case solid pharmaceutical carriers are employed. If desired, tablets may be coated by standard aqueous or nonaqueous techniques. The parenteral dosage form can consist of a sterile solution of the active ingredient, either in its free or salt form, in physiological buffer or sterile water. In addition, parenteral solutions can contain preservatives such as benzalkonium chloride, methyl- or propyl-paraben and chlorobutanol. Suitable pharmaceutical carriers are described in Remington's Pharmaceutical Sciences, a standard reference text in this field. […] Accordingly, such aqueous compositions are best stored desiccated and hydrated within several hours to several days prior to patient administration.

[8] = Potency relative to methotrexate; settings: therapeutically effective amount for the same level of efficacy
[9] = AMT 2 mg/m^2 PO x 2 (n=75), MTX 25 mg/m^2 PO x 4 (n=41)
[10] = AMT 2 mg/m^2 PO x 2 (n=81), MTX 25 mg/m^2 PO x 4 (n=42)
[11] = AMT 2 mg/m^2 PO x 2 (n=104), MTX 25 mg/m^2 PO x 4 (n=63)
[12] = AMT 2 mg/m^2 PO x 2, MTX 25 mg/m^2 PO x 4
[13] = eAMT and eMTX (marrow exposure)

## Nc1nc(N)c2nc(CNc3ccc(C(=O)N[C@@H](CCC(=O)O)C(=O)O)cc3)cnc2n1 [AMT]
[1]; 25 high risk patients receiving aminopterin, standard risk patients receiving methotrexate
  Event-free survival (EFS) at 24-months, Kaplan Meier: 93%
[1]; [9]
  Coefficient of variation of toxicity, absolute neutrophil count in consolidation: 80%
  Mean absolute neutrophil count in consolidation: 1667 cells/μL
[1]; [10]
  Coefficient of variation of toxicity, platelet counts in consolidation: 58%
  Mean platelet counts in consolidation: 316 cells × 10^3/μL
[1]; [11]
  Coefficient of variation of toxicity, level of liver enzymes above normal: 25%
  Mean level of liver enzymes above normal: 188 IU/L ALT
[1]; AMT 2 mg/m^2 PO x 2 (n=104), MTX 25 mg/m^2 PO x 4 (n=63), listed as aminopterin
  Coefficient of variation of toxicity, level of liver enzymes above normal: 25%
[1]; [12]
  Coefficient of variation Relative To The Invention, absolute neutrophil count in consolidation: 1.0
  Coefficient of variation Relative To The Invention, level of liver enzymes above normal: 1.0
  Coefficient of variation Relative To The Invention, platelet counts in consolidation: 1.0
[1]; AMT 4 mg/m^2/wk (n=104), MTX 100 mg/m^2/wk (n=63)
  Patients with severe hepatotoxicity (liver enzyme elevations greater than five times normal): 5.8%
[1]; AMT high risk ALL (n=20), MTX standard risk ALL (n=20), Table V
  Therapeutic Component: Antifolate dose: 4 mg/m^2/wk:
[1]; AMT high risk ALL (n=20), MTX standard risk ALL (n=20), Table VI
  Therapeutic Component: Antifolate dose with same efficacy as MTX at 100 mg/m^2/wk: 4 mg/m^2/wk
[1]; Any elevation of liver enzymes
  Therapeutic Index: 1
  Toxicity Component: Antifolate dose with same toxicity as MTX at 100 mg/m^2/wk: 4 mg/m^2/wk
[1]; Elevations in liver enzymes >5 times normal
  Therapeutic Index: 1
[1]; Elevations in liver enzymes >5 times normal (severe hepatotoxicity)
  Toxicity Component: Antifolate dose causing 5.8% of the population to have the toxicity: 4 mg/m^2/wk
[1]; Hospital admissions
  Therapeutic Index: 1
  Toxicity Component: Antifolate dose with same toxicity as MTX at 100 mg/m^2/wk: 4 mg/m^2/wk
[1]; Mucositis
  Therapeutic Index: 1
  Toxicity Component: Antifolate dose with same toxicity as MTX at 100 mg/m^2/wk: 4 mg/m^2/wk
[1]; Myelosuppression
  Therapeutic Index: 1
  Toxicity Component: Antifolate dose with same toxicity as MTX at 100 mg/m^2/wk: 4 mg/m^2/wk
[1]; Neutropenia
  Therapeutic Index: 1
  Toxicity Component: Antifolate dose with same toxicity as MTX at 100 mg/m^2/wk: 4 mg/m^2/wk
[1]; Thrombocytopenia
  Therapeutic Index: 1
  Toxicity Component: Antifolate dose with same toxicity as MTX at 100 mg/m^2/wk: 4 mg/m^2/wk
[1]; Treatment interruptions
  Therapeutic Index: 1
  Toxicity Component: Antifolate dose with same toxicity as MTX at 100 mg/m^2/wk: 4 mg/m^2/wk
[1]; [13]
  Therapeutic Index: 1
  Toxicity Component: Antifolate dose with same toxicity as MTX at 100 mg/m^2/wk: 4 mg/m^2/wk
[1]; elevated liver enzymes, 2 mg/m^2 aminopterin vs 25 mg/m^2 methotrexate
  Coefficient of variation of toxicity of aminopterin as percent of that of methotrexate: 71%
[1]; erythrocyte antifolate levels, 2 mg/m^2 aminopterin vs 20 mg/m^2 methotrexate
  Coefficient of variation of toxicity of aminopterin as percent of that of methotrexate: 12.4%
[1]; follow-up period of up to 15 months, 20 patients per arm
  Survival rate of high risk patients vs standard risk patients treated with equipotent methotrexate: equivalent survival rate
[1]
  Therapeutic Component: Percentage effective (no evidence of a disease manifestation): 100% effective at
[1]; listed as aminopterin
  Therapeutic Component: Percentage effective (no evidence of a disease manifestation): 100%
[2]; 2 mg/m2, AMT 2 mg/m^2, pediatric patients (age 0-21), 15 matched patients, read-out: Interpatient oral bioavailability (%)
  bioavailability: 94%
[2]; 2 mg/m2, AMT 2 mg/m^2, pediatric patients, n=15, read-out: Maximum (%) oral bioavailability
  bioavailability: 165%
[2]; 2 mg/m2, AMT 2 mg/m^2, pediatric patients, n=15, read-out: Minimum (%) oral bioavailability
  bioavailability: 45%
[3]
  displacement of tritiated methotrexate and binding to DHFR: equivalent
[4]
  Interpatient coefficient of variation of oral bioavailability: 42%
[5]; days 1, 12 and 22
  antifolate content in brain parenchyma, aminopterin arm vs methotrexate arm: significantly less antifolate
[5]; days 1 and 22 after last dose
  antifolate content in liver, aminopterin vs methotrexate: no different
[6]; Mucositis vs peripheral blasts/bone marrow infiltrates
  Therapeutic Index: 1
[6]; Mucositis
  Toxicity Component: Antifolate dose with same toxicity as MTX at 100 mg/m^2/wk: 4 mg/m^2/wk
[6]; Myelosuppression
  Therapeutic Index: 1
  Toxicity Component: Antifolate dose with same toxicity as MTX at 100 mg/m^2/wk: 4 mg/m^2/wk
[6]; Neutropenia
  Therapeutic Index: 1
  Toxicity Component: Antifolate dose with same toxicity as MTX at 100 mg/m^2/wk: 4 mg/m^2/wk
[6]; Thrombocytopenia
  Therapeutic Index: 1
  Toxicity Component: Antifolate dose with same toxicity as MTX at 100 mg/m^2/wk: 4 mg/m^2/wk
[6]
  Therapeutic Component: Antifolate dose: 4 mg/m^2/wk:
  Therapeutic Component: Percentage effective (complete remission or stable disease): 43% complete
[6]; listed as aminopterin
  Therapeutic Component: Percentage effective (complete remission or stable disease): 43%
  Therapeutic Component: Antifolate dose: 4 mg/m^2/wk
[6]; peripheral blasts in T-lineage ALL and mucositis
  Therapeutic index of aminopterin relative to corresponding therapeutic index of methotrexate: greater than 50 fold
[7]
  stability of aqueous compositions (conversion of aminopterin to folic acid): accumulate folic acid to undesirable levels over the course of six months of storage
[8]
  potency relative to methotrexate: about 25 times

Reference: patent publication US7612071B2, “Compositions and methods employing aminopterin” (Syntrix Biosystems, Inc., priority 2004, dated 2009)
